Blank lines part the entries; values can stand above or below the molecule they belong to.
Tests used:
[1] = target: Fusobacterium nucleatum YqdH (butanol dehydrogenase) (Fusobacterium nucleatum); experiment: SEC; purified FnYqdH (500 uL of 1 mg/mL) on Superdex 200 10/300 GL; 20 mM Tris-HCl pH 8.0, 150 mM NaCl, 2 mM BME; 0.5 mL/min
[2] = target: T1, FnYqdH (Fusobacterium nucleatum YqdH, butanol dehydrogenase) (Fusobacterium nucleatum, UniProt Q8R612); experiment: NADPH consumption at […] nm, double reciprocal plot; type: biochemical; conditions: 0.1-1 mM NADPH; co-substrate butanal; Tris-HCl pH 6.0, CoSO4, 35 °C (standard assay)
T1 construct: gene FN1415; recombinant, yqdH cloned NcoI/XhoI in pPRO-EX-HTA, expressed in Escherichia coli; dimer; 384 residues modelled (CD to residue 385)
T1 sequence (Q8R612 1-385): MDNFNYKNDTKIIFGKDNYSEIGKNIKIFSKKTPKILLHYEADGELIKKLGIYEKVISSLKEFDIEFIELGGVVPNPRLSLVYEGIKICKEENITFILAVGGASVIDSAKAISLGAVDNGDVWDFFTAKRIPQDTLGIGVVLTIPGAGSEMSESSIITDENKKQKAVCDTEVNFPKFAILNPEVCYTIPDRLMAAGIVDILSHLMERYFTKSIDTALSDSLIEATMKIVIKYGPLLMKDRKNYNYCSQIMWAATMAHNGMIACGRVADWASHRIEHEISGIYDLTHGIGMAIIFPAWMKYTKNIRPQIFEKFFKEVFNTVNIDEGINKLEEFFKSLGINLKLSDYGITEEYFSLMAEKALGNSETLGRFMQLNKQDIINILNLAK

TmBDH = target: T2, TmBDH (Thermotoga maritima, UniProt Q9WZS7); experiment: NADH consumption, spectrophotometric; type: biochemical; conditions: metal-free enzyme reconstituted with 2 mM Zn2+, Co2+, Ni2+ or Fe3+; co-substrate butanal
T2 construct: gene TM_0820; purified protein, EDTA-treated (metal-free) then metal-reconstituted
T2 sequence (Q9WZS7 1-395): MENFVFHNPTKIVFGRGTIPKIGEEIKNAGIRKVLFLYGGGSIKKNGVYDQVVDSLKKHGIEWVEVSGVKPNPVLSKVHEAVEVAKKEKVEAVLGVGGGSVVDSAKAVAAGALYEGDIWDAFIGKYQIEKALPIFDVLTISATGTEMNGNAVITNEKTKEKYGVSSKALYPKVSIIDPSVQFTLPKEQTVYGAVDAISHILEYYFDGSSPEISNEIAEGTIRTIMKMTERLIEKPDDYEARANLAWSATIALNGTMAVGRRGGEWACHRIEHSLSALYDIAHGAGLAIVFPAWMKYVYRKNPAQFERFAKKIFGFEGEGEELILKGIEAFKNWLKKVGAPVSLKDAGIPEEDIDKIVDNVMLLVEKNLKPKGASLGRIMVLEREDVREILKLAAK

[3] = target: T1, FnYqdH (Fusobacterium nucleatum YqdH, butanol dehydrogenase); experiment: NADH consumption at […] nm, double reciprocal plot; type: biochemical; conditions: 0.1-0.5 mM NADH; co-substrate butanal; Tris-HCl pH 6.0, CoSO4, 35 °C (standard assay)
[4] = target: T1, FnYqdH (Fusobacterium nucleatum YqdH, butanol dehydrogenase); experiment: X-ray crystal structure, […] Å, soaked crystal; conditions: soaked 1 min with 10 mM NADH and 2 mM Co2+; nucleotide-binding domain; open conformation

stoichiometry N [1]: 2
Molecule: Fusobacterium nucleatum YqdH (butanol dehydrogenase) (enzyme)

Molecule: NC(=O)C1=CN([C@@H]2O[C@H](COP(=O)(O)OP(=O)(O)OC[C@H]3O[C@@H](n4cnc5c(N)ncnc54)[C@H](OP(=O)(O)O)[C@@H]3O)[C@@H](O)[C@H]2O)C=CC1 [NADPH]
apparent Km [2]: NADH is preferred over NADPH in terms of FnYqdH activity (Figure S2)

Molecule: NC(=O)C1=CN([C@@H]2O[C@H](COP(=O)(O)OP(=O)(O)OC[C@H]3O[C@@H](n4cnc5c(N)ncnc54)[C@H](O)[C@@H]3O)[C@@H](O)[C@H]2O)C=CC1 [NADH]
NADH consumption, spectrophotometric (TmBDH): monitoring NADH consumption for five different metal ions
apparent Km [3]: the apparent Km and Vmax values were measured with a purified protein
X-ray crystal structure, 2.72 Å, soaked crystal [4]: an electron-density map corresponding to NADH and metal ions was clearly observed
